{"source": "patent US5614370A", "about": "“Assay to identify human C5a antagonists and agonists” (Merck & Co., Inc., priority 1994, dated 1997)", "molecules": {"B1": {"name": "Phe for His67 substituted C5a peptide: Phe for His67 substituted C5a peptide (Mollison et al.) (peptide, UniProt P01031 678-751, looked up, variant H67F)", "C5a anaphylatoxin": "TLQKKIEEIAAKYKHSVVKKCCYDGACVNNDETCEQRAARISLGPRCIKAFTECCVVASQLRANISFKDMQLGR", "modifications": "C5a anaphylatoxin"}}, "key": {"C5a receptor [1]": {"biological_target": "T1, C5a receptor (Homo sapiens, UniProt P21730)", "T1 construct": "followed by a 20 μL aliquot of neutrophil membrane; endogenous in cells", "T1 sequence (P21730 1-350)": "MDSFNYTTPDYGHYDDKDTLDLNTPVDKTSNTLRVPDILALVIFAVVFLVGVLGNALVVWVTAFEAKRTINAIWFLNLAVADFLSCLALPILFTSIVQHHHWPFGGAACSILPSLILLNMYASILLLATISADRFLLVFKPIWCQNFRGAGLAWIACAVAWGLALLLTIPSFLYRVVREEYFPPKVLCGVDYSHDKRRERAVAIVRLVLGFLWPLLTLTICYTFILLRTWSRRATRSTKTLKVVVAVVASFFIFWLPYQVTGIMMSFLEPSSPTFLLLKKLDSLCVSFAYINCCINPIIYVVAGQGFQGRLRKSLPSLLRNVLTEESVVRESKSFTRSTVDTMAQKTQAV", "format": "binding", "conditions": "293 cells present, FIG. 4A; PMN membranes", "text": "FIGS. 4A, 4B and 4C. (A) Competition binding curve using ^125 I-labeled intact C5a and unlabeled C013 peptide in the presence and absence of protease secreting cells.\n(B) Competition binding curve using ^125 I-labeled intact C5a and unlabeled C028 peptide in the presence and absence of protease secreting cells.\n(C) Competition binding curve using ^125 I-labeled intact C5a and unlabeled C013 and C028 peptides in the presence and absence of protease secreting cells in the presence or absence of protease inhibitor.\nWe therefore attempted, and succeeded, to improve on this radioligand by identifying a compound with lower non-specific binding, and higher binding affinity. We developed the compound C013, ^125 I-Tyr Phe Lys Ala Cha Gly Leu dPhe Arg, SEQ.ID:2:, which had about 30-fold the binding affinity of ^125 I-C009."}, "human neutrophils [2]": {"test_system": "human neutrophils", "assay": "Ligand induced Ca2+ flux (Indo-1 fluorescence)", "format": "cell-based", "conditions": "maximal effects, peptide 10-100 μM vs 1 nM C5a, FIG. 5B", "method": "(§1) FIG. 5A and 5B. Degranulation and Ca^2+ responses to the hexapeptides. […] The ED50 's for the degranulation are: C5a, 0.5 nM; C028, 0.2 μM; C026, 1 μM. C5a, maximally, released 57% of the total cellular content of MPO. The ability of these molecules to elicite a Ca^2+ -flux is shown in B. The concentrations used for C028 (10 μM), C026 (10 μM), C061 (100 μM) are those which produce a maximal flux. A saturating concentration was also used for C5a (1 nM).\n(§2) Ligand induced Ca^2+ fluxes were measured by following the change in Indo-1 induced fluorescence on a FACS analyzer as previously described (Van Riper, G., Siciliano, S. J., Fischer, P. A., Meurer, R., Springer, M. S. and Rosen, H. (1993) J. Exp. Med. 177, 851-856.).\nFIG. 5B compares the maximal effects of each peptide (10-100 μM) with the response induced by C5a (1 nM)."}, "human neutrophils [3]": {"test_system": "human neutrophils", "assay": "Degranulation, myeloperoxidase (MPO) release from human neutrophils (agonism)", "format": "cell-based", "conditions": "FIG. 5A", "method": "as §1\n(§3) This assay was performed on human neutrophils as previously reported and it is a measure of C5a or peptide induced exocytosis (Rollins, T. E. and Springer, M. S. (1985) J. Biol. Chem. 260, 7157-7160).\nThe functional properties of two of the peptides, C026, and C028, were originally described by Mollison et. al (Mollison, K. W., Krause, R. A., Fey, T. A., Miller, L., Wiedeman, P. e., Kawai, M., Lane, B., Luly, J. R. and Carter, G. W. (1992) FASEB J. 6, A2058). […] We have reinvestigated the degranulating activities of these peptides as measured by the release of myeloperoxidase (MPO) from human neutrophils. […] The EC50 /IC50 (degranulation/binding) for C028 is 8, the same as that measured for C5a (Table II, FIG. 5A). […] However, the difference in activity between C026 and C028 is significant and reproducible. Since the structural difference between the two is the substitution of an aromatic for an aliphatic residue (Phe for Cha) we chose to make additional changes at position 5 which further increased aromaticity. […] To further examine whether the differences in activity between the peptides reflects the increased aromaticity we synthesized a molecule with Leu, an aliphatic amino acid, at position 5 (C068, Table II)."}, "C5a receptor [4]": {"biological_target": "T1, C5a receptor", "assay": "Competition binding against 125I-labeled intact C5a on human neutrophil (PMN) membranes", "conditions": "Table II; human neutrophil membranes, competition against 125I-C5a; read-out: Binding IC50", "text": "The affinity of these peptides is shown, for example, by radiolabeling intact C5a, and using the unlabeled peptide to compete the labeled C5a from C5a receptor binding sites on cellular membranes. Preparations of polymorphonuclear leukocytes (PMN's) are known to express the C5a receptor, (inhibition of the chemotactic response to C5a of this type of cell is one desirable utility for compounds identified by the instant assay). One method for preparing these membranes is described by Rollins, T. E. et al., [J. Biol. Chem. 264:520-526 (1988); see also U.S. Pat. No. 5,177,190, herein incorporated by reference as a method for isolating and purifying C5a receptor]. Briefly, this involves isolating PMN's in large quantity, disrupting these cells and obtaining the membrane fraction by centrifugation. Protein assay of the membrane preparation allows for standardization of the amount of protein added in any set of membrane binding experiments.\nIn FIG. 1, unlabeled C013 is used to compete with ^125 I-labeled C5a. […] In FIG. 2, the C013 is ^125 I labeled. Unlabeled C5a and unlabeled C013 are each used to compete the labeled C013 from C5a binding sites on the membranes. […] In FIG. 3a, ^125 I-C5a is competed from its binding site by unlabeled C064 and unlabeled, natural C5a (as opposed to recombinant C5a, which, however, may also obviously may be used for these purposes). […] In FIG. 3b, the inverse experiment is shown, wherein ^125 I-C064 is displaced by unlabeled C064 and unlabeled nC5a.\nHexapeptides within this class differing only at position X have similar affinities for the C5a receptor. As measured in competition binding experiments against ^125 I-C5a on human neutrophil membranes their IC50 's varied by only a factor of 3, from 25 to 80 nM (Table II):\n^2 Binding experiments were carried out with human neutrophil\nBinding is initiated by an addition of 20 μL of PMN membrane (typically 0.5 μg of protein) to each tube. After incubation for 90 min. at room temperature 2 ml of 0.05 M HEPES, pH 7.2, containing 0.5% BSA are added to the tube, the contents vortexed and filtered over a Whatman GF/C filter which has been soaked in 0.3% polyethylenimine. An additional 2 ml of buffer are added to the tube and used to wash the filter. All of the test samples are dissolved in DMSO, another water miscible organic solvent, or in an aqueous solvent. Non-specific background was determined by inclusion of a 100-fold excess of unlabeled C5a.\nThe percent inhibition is calculated according to the following formula: [formula]\nIodination of C5a was carded out with the use of chloramine T. (Rollins, T.E., and Springer, M.S. (1985) J. Biol. Chem. 260, 7157-7160). […] Concentrations of C5a were determined by amino acid analysis and by RIA (Amersham Corp.). Membranes were prepared from human PMN as described by Rollins, T.E., Sciliano, S and Springer, M.S., J. Biol Chem 264 520-526 (1988)."}, "C5a receptor [5]": {"biological_target": "T1, C5a receptor", "assay": "Agonist activity over all C5a induced responses (chemotaxis, MPO release, calcium flux, GTPase activity, GTPγ-S binding)", "format": "cell-based", "conditions": "C089 tested up to and including 100 μM", "method": "The EC50 measures the concentration of compound at which a 50% maximal stimulation of a given biological response induced by C5a is achieved (chemotaxis, MPO release, calcium flux, GTPase activity or GTPγ-S binding), and the IC50 is the concentration at which 50% maximal inhibition of C5a binding is achieved.\nas §3, §2\nThis assay is a modification of the procedure described by Sims et. al. (Sims, T. J., Geissler, F. T. and Page, R. C. (1985) J. lmmunol. Meth. 78, 279-291 ). Chemotaxis was assayed in a 48 well Neuro Probe chamber (Neuro Probe, Bethesda, MD) using ^51 Cr-labelled cells. […] After preforming a gradient for 30 minutes at 37° C., 2×10^5 labelled cells were added to the upper chamber and allowed to migrate at 37° C. for one hour. The upper two polycarbonate filters were then discarded and the formed wells cut from the nitrocellulose membrane. The radioactivity present in these filters is a measure of the number of cells that migrated through both polycarbonate filters.\nThe method of Kupper et al. (Kupper, R. W., Dewald, B., Jakobs, K. H., Baggiolini, M. and Gierschik, P. (1992) Biochem. J. 282, 429-434) was adapted for use in microtiter plates. Neutrophil membranes were suspended in 50 mM triethanolamine-HCl, 5 mM MES, pH 7.3, containing 1 mM EDTA, 5 mM MgCl2, 143 mM NaCl, 0.16 % BSA, 1 mM ouabain, 1 mM AMP-PNP, 0.5 mM ATP, 2.5 U/mL creatine phosphokinase,. 10 mM creatine phosphate, 0.1 mM PMSF and 10 ng/mL each of leupeptin, aprotinin and chymostatin. 50 μL of membranes containing 1-5 μg protein were added to 50 μL of the same buffer containing the test agent and 0.25 μM [γ-^32 P]-GTP (2,000 cpm/pmol) in the wells of a U-shaped microtiter plate. After incubation for 15-30 rain at 29° C., 100 μL of a 10% (w/v) charcoal suspension in 100 mM H3 PO4 was added and plates were centrifuged at 2000 rpm for 5 min. 100 μL of the supernatant was transferred to an Optiplate microtiter plate and 100 μL of Microscint-40 scintillation cocktail was added. Plates were counted in a Packard TopCount microtiter plate counter."}, "C5a receptor [6]": {"test_system": "C5a receptor", "conditions": "cited from earlier work"}, "C5a receptor [7]": {"test_system": "C5a receptor", "conditions": "literature; cited from earlier work"}}, "note": "Where two headings read alike, the source gives them in different places. Non-standard residues stand in square brackets, D forms with d. Residues, ends and D or L forms follow the SMILES beside them. NMeF = CN[C@@H](Cc1ccccc1)C(=O)O; Cha = N[C@@H](CC1CCCCC1)C(=O)O; dCha = N[C@H](CC1CCCCC1)C(=O)O"}
{"molecule": "CC(C)C[C@H](NC(=O)CNC(=O)[C@H](CC1CCCCC1)NC(=O)[C@H](C)NC(=O)[C@H](CCCCN)NC(=O)[C@@H](N)Cc1ccccc1)C(=O)N[C@H](Cc1ccccc1)C(=O)N[C@@H](CCCNC(=N)N)C(=O)O", "note": "[C013a] (H-FKA[Cha]GL[dF]R-OH)", "values": [{"measurement": "loss of potency in displacement of 125I-C5a in the presence of 293 cells", "setting": "C5a receptor [1]", "value": "about 100 fold"}]}
{"molecule": "CN[C@@H](Cc1ccccc1)C(=O)N[C@@H](CCCCN)C(=O)N1CCC[C@H]1C(=O)N[C@H](CC1CCCCC1)C(=O)N[C@@H](CC(C)C)C(=O)N[C@H](CCCNC(=N)N)C(=O)O", "note": "[C068] (H-[NMeF]KP[dCha]L[dR]-OH)", "values": [{"measurement": "Ca2+ response in words", "setting": "human neutrophils [2]", "value": "full agonist in this assay"}, {"measurement": "degranulating activity in words", "setting": "human neutrophils [3]", "value": "full agonist, as measured both by maximal release and ED50 /IC50 ratio"}, {"measurement": "IC50", "setting": "C5a receptor [4]", "value": 0.06, "unit": "µM"}, {"measurement": "agonist activity in words, all responses", "setting": "C5a receptor [5]", "value": "almost complete agonists of all of these responses"}]}
{"molecule": "C-terminal C5a octapeptide: C-terminal C5a octapeptide which retained receptor binding activity (Kawai et al.) (HKDMQLGR; C5a anaphylatoxin; UniProt P01031 744-751, looked up, fragment)", "values": [{"measurement": "C5a binding in words", "setting": "C5a receptor [6]; literature", "value": "retained receptor binding activity"}]}
{"molecule": "natural C-terminus of C5a: synthetic peptide consisting of the C-terminal eight amino acids of C5a (HKDMQLGR; C5a anaphylatoxin; UniProt P01031 744-751, looked up, fragment) [reference compound]", "values": [{"measurement": "Ki", "setting": "C5a receptor [6]; C-terminal eight residues of C5a, read-out: Ki, inhibition of C5a binding", "value": 300, "unit": "µM"}, {"measurement": "agonist properties in words", "setting": "C5a receptor [7]", "value": "has agonist properties"}]}
{"molecule": "B1", "values": [{"measurement": "Ki", "setting": "C5a receptor [6]; literature, read-out: Ki for C5a binding", "value": 0.26, "unit": "µM"}]}
